Key:
[1] = tested on: α-synuclein protein in MES23.5 cells; assay: Western blot of α-synuclein in co-transfected MES23.5 cells; assay type: cell-based, human; conditions: co-expression with αS for 24 hours; syn-1, 7071AP and hSA-2 antibodies
Experimental: Cells were transfected with 0, 0.25, 0.5, 1, 5, and 10 μg (per 10 cm dish) of plasmid. 24 hours later, cells were washed with Tris-buffered saline and lysed in 140 mM NaCl, 50 mM Tris-Hcl, pH 8.0, 1 mM EDTA, 0.5% Triton-X100, and 1× protease inhibitors. Lysates were centrifuged at 100,000×g for 30 min at 4° C.; the top 2/3 of supernatants were removed and frozen in siliconized tubes at −80° C. Samples were run on SDS/PAGE, using 1 mM DTT as the reducing agent. Expression of the αS protein was confirmed at 24 hours post-transfection by Western blotting, where cell lysates were probed with a monoclonal antibody against αS protein (syn-1 antibody, BD Transduction Labs).
MES23.5 cells were transfected with 0.5 μg αS-encoding SNCA cDNA per 10 cm dish plus either 1.25, 2.5 or 5 μg (low, medium, or high) GBA-encoding cDNA in the absence or presence of 5 μg of Prosaposin-encoding cDNA. All arms of the experiment were balanced up to a total of 10.5 μg cDNA per 10 cm dish using empty vector cDNA. The GBA- and Prosaposin-encoding cDNA plasmids under a CMV promoter, as well as the pCMV-XL5 empty vector were purchased from OriGene Technologies, Inc (clones had been fully sequence-verified after isolation and a maxiprep). 24 hours later, cells were lysed and probed for GBA and αS protein levels. The upper panel in of FIG. 2B3 is a representation of a Western Blot indicating expression of GBA protein in the absence and presence of co-transfected prosaposin. GBA was probed using the monoclonal antibody 8E4. GBA over-expression occurred in a slightly gene-dosage dependent way in the absence of prosaposin. In the presence of prosaposin over-expression, the GBA signal itself was decreased. […]

[2] = tested on: rat αS in MES23.5 cells; assay: Sandwich ELISA of co-transfected rat αS in MES23.5 cells; assay type: cell-based; conditions: human Cathepsin D, same paradigm
[3] = tested on: A30P, E46K, A53T, S129D, S129A and DQ/AA variants of α-synuclein in MES23.5 cells; assay: Sandwich ELISA of mutant α-synuclein variants in MES23.5 cells co-transfected with CTSD cDNA; assay type: cell-based, human; conditions: cathepsin D cDNA 5 μg/10 cm dish
Experimental: Sera from six rabbits were raised and affinity-purified at Open Biosystems, Inc. (openbiosystems.com) against recombinant, full-length human αS. Recombinant αS had been HPLC- and MS-characterized and subjected to amino acid composition and protein concentration analyses. For ELISA, 384-well MaxiSorp plates (Nunc, Inc) were coated with 50 μl/well capturing polyclonal Ab (hSA-2) diluted in coating buffer (NaHCO3 with 0.2% NaN3, pH 9.6). Following washes with PBS/0.05% Tween-20 (PBS-T), plates were blocked for 2 hours at 37° C. in blocking buffer (1.125% fish skin gelatin; PBS-T). After 4 washes, samples were loaded and incubated at 4° C. for 12 hours. Biotinylated Syn-1 mAb (as the assaying Ab) was generated using 200 μg Sulfo-NHS-LC Biotin (Pierce), diluted in blocking buffer and added to the plate for 2 hours at 37° C. Following 4 washes, ExtrAvidin phosphatase (Sigma) diluted in blocking buffer was applied for 1 hr at 37° C. Color development was carried out by using Fast-p-Nitrophenyl Phosphate (Sigma) and monitored kinetically at OD 405 nm every 5 minutes for up to 60 minutes.
To examine whether Cathepsin D could also reduce the levels of missense mutation-carrying αS proteins, MES23.5 cells were transfected with low amounts (0.5 μg/10 cm dish) of SNCA cDNA encoding either the A30P, E46K or A53T variants of α-synuclein which are linked to familial Parkinson Disease in humans, as well as a S129D and a S129A mutant. Phosphorylation of αS at the Serine 129 residue is known to be a pathological hallmark of αS aggregates in vivo (Anderson J et al., 2006, J Biol Chem, 281:29739-29752). Mutation of a Ser residue to Asp is known in the art to mimic sustained, serine-based phosphorylation. The S129A mutant, a phosphorylation-incompetent mutant of αS, was also included for comparison.
As shown in the bar graph of FIG. 7, the co-expression of Cathepsin D-encoding CTSD cDNA (5 μg/10 cm dish) with either A30P, E46K, A53T, S129D, or S129A αS caused a similar degree reduction in αS levels for all αS proteins examined, when compared to their co-expression with empty vector DNA. When comparing the changes in α-synuclein steady-state to well-characterized levels of recombinant α-synuclein protein that was loaded in parallel, it was estimated that cathepsin D over-expression (at a cDNA concentration of 5 μg/10 cm dish) led to intracellular α-synuclein levels that were 23.98+/−3.57%, 33.08+/−18.51%, 39.21+/−14.63%, 34.84+/−11.36% and 34.31+/−13.39% of cognate control levels, for A30P, E46K, A53T, S129D, or S129A αS polypeptides, respectively (n=2 (−3) from 2-3 independent experiments).
Of note, residues D98 and Q99 of αS represent the motif by which αS is recognized by the Lamp2a receptor during chaperone mediated autophagy (CMA); Cuervo et al, 2004, Science, vol 305, pp 1292-1295). To investigate the importance of this motif in the αS-lowering action induced by cathepsin D, MES 23.5 cells were also transfected with a cDNA (0.5 μg/10 cm dish) encoding a mutant αS variant, where the D98 and Q99 residues had both been changed to Alanine (A) by site-directed mutagenesis (i.e., DQ/AA-variant of αS). When comparing the changes in the DQ/AA-αS steady-state to well-characterized levels of recombinant α-synuclein protein that were loaded in parallel, it was estimated that cathepsin D over-expression (5 μg/10 cm dish) led to intracellular DQ/AA αS levels that were 22.14+/−5.32% of the vector control levels, (n=3, from 3 independent experiments; not shown).

cathepsin D: human lysosomal aspartyl protease expressed from CTSD cDNA plasmid under a CMV promoter
generation of lower or higher molecular weight αS species [1]: did not lead to the generation of any visible lower or higher molecular weight species | effect on level of co-transfected rat αS [2]: able to lower the levels of co-transfected rat αS | intracellular α-synuclein level, % of cognate control levels ([3]; A30P αS): 23.98+/−3.57% | intracellular α-synuclein level, % of cognate control levels ([3]; A53T αS): 39.21+/−14.63% | intracellular DQ/AA αS level, % of vector control levels ([3]; DQ/AA αS (D98A/Q99A), n=3): 22.14+/−5.32% | intracellular α-synuclein level, % of cognate control levels ([3]; E46K αS): 33.08+/−18.51% | intracellular α-synuclein level, % of cognate control levels ([3]; S129A αS): 34.31+/−13.39% | intracellular α-synuclein level, % of cognate control levels ([3]; S129D αS): 34.84+/−11.36%

Reference: patent publication US10213494B2, “Treatment of synucleinopathies” (The Brigham and Women's Hospital, Inc., priority 2007, dated 2019)
